Broadly, the IC50 is the concentration at which inhibition is half-maximal. A high value points to weaker potency.

In this experiment the test system is HCT-116. The experiment can be described thus: Cytotoxicity against human HCT116 cells. The class given is functional, cell-based.
With `C[C@H]1C[C@@](C)(CCCCCCCCCCCCc2ccccc2)OC1=O` (relative stereo), inhibition was half-maximal at 14.5 µM (IC50).

In turn, `CN(C)CCc1nccc2c1[nH]c1cc(Br)ccc12` [PLAKORTAMINE A] showed an IC50 of 3.2 µM.

On to `C=Cc1nccc2c1[nH]c1cc(Br)ccc12` [PLAKORTAMINE B], for which the concentration for half-maximal inhibition (IC50) was 0.62 µM.

`CN(CCc1nccc2c1[nH]c1cc(Br)ccc12)CCc1nccc2c1[nH]c1cc(Br)ccc12` [PLAKORTAMINE C] displayed a half-maximal inhibitory concentration (IC50) of 2.15 µM.

In turn, `CN1CCC(c2nccc3c2[nH]c2cc(Br)ccc23)O1` (stereo not given) [PLAKORTAMINE D] showed an IC50 of 15 µM.

The values above are taken from ChEMBL document CHEMBL1150628, “Cytotoxic beta-carbolines and cyclic peroxides from the Palauan sponge Plakortis nigra” (J Nat Prod, 2002).
